Common to all, as to type: in vivo
The subject of one experiment is Galium aparine. Description: Field trial, post-emergence, visual scoring. Conditions: alone. The procedure: (§1) The tests were conducted outdoors (plot trials, 10 m^2 per plot, 2 repetitions, spray application with 200-300 liters of water per hectare). Crops and broad-leaved weeds/weed grasses were sown under customary field conditions. In addition, a natural weed flora also appeared. Application was by the post-emergence method. The application rates of the herbicidally active compounds applied on their own or in combinations are likewise shown in the tables below. Evaluations were by visual scoring (using a 0-100% scale) after application by comparison of treated and untreated test variants.
(§2) The abbreviations denote: • a.i.=active ingredient • E^C=expected value according to Colby (E^C=A+B−A×B100) • Δ=difference (%) of the measured value to the expected value (%) (measured value minus expected value)
(§3) Evaluation: • measured value E is greater than E^C:→synergism (+Δ) • measured value E equals E^C:→additive effect • measured value E is smaller than E^C:→antagonism (−Δ)

In the next experiment the test system is Phalaris minor. Description: Greenhouse trial, post-emergence, visual herbicidal effect. The following applies: Table 5-03, greenhouse, alone, 2 g of a.i./ha. As to the method: (§4) The weed seeds were sown in pots (diameter 8 cm) with sandy loam soil and germinated under optimum conditions. The herbides were applied by the post-emergence method onto the pots with the cultures, at a spray volume of 300 I/ha. The herbicides were applied on their own and in combination. The trial was conducted in a greenhouse under optimum growth conditions. The herbicidal effects were assessed visually by comparison of untreated and treated plants. The percentages mean: 0%=no effects, 100%=the plants die off completely). The percentages are used to calculate interactions between individual treatments and combination treatment according to S. R. Colby, Weeds 15, pages 20 to 22 (1967).
as §2, §3

In a further experiment the test system is Viola tricolor. The description is as above. Conditions: alone. The procedure:
as §4, §2, §3

In another experiment the test system is Avena fatua. The description is as above. The following applies: Table 5-01, greenhouse, alone, 2 g of a.i./ha. As to the method:
as §4, §2, §3

In another experiment the test system is Sida spinosa. Description: Field trial, post-emergence, visual scoring. Conditions: alone. As to the method: as §1, §2, §3
A further experiment deals with Cassia obtusifolia. The experiment can be described thus: Field trial, post-emergence, visual scoring. The following applies: alone. The procedure: as §1, §2, §3
For another experiment, the system named is Abutilon theophrasti. The experiment can be described thus: Field trial, post-emergence, visual scoring. Conditions: Table 5-17, field, alone. The procedure: as §1, §2, §3
For a further experiment, the system named is Portulaca oleracea. Description: Field trial, post-emergence, visual scoring. Conditions: alone. As to the method: as §1, §2, §3
In a further experiment the test system is Setaria viridis. The experiment can be described thus: Field trial, post-emergence, visual scoring. Conditions: alone. As to the method:
as §1, §2, §3

The test system of the next experiment is Papaver rhoeas. Description: Greenhouse trial, post-emergence, visual herbicidal effect. The following applies: alone. The procedure: as §4, §2, §3
Another experiment has as its system Centaurea cyanis. Described as above. Conditions: alone. The procedure:
as §4, §2, §3

The subject of the next experiment is Amaranthus retroflexus. The experiment can be described thus: Field trial, post-emergence, visual scoring. The following applies: Table 5-48, field, alone. As to the method:
as §1, §2, §3

For a further experiment, the system named is Bidens pilosa. Description: Greenhouse trial, post-emergence, visual herbicidal effect. The following applies: alone. As to the method:
as §4, §2, §3

Another experiment deals with Brachiaria platyphylla. Described as above. The procedure:
as §4, §2, §3

The subject of another experiment is Polygunum convolvulus. The experiment can be described thus: Field trial, post-emergence, visual scoring. Conditions: Table 5-53, field, alone, 25 g of a.i./ha. As to the method:
as §1, §2, §3

The test system of another experiment is Lolium multiflorum. Description: Field trial, post-emergence, visual scoring. Conditions: alone. As to the method: as §1, §2, §3
A further experiment concerns Ambrosia artemisiifolia. The experiment can be described thus: Greenhouse trial, post-emergence, visual herbicidal effect. The following applies: Table 5-52, greenhouse, alone, 4 g of a.i./ha. As to the method: as §4, §2, §3
For another experiment, the system named is Veronica hederifolia. The experiment can be described thus: Field trial, post-emergence, visual scoring. The following applies: Table 5-79, field, alone, 25 g of a.i./ha. The procedure: as §1, §2, §3
The subject of a further experiment is Polygonum convolvulus. The experiment can be described thus: Greenhouse trial, post-emergence, visual herbicidal effect. The following applies: Table 5-78, greenhouse, alone, 4 g of a.i./ha. The procedure:
as §4, §2, §3

For the next experiment, the system named is Xanthium strumarium. Described as above. Conditions: Table 5-77, greenhouse, alone, 4 g of a.i./ha. As to the method: as §4, §2, §3
For experiment [1], the system named is broad-leaved weeds/weed grasses. Description: Field trial, post-emergence, visual scoring (species not listed above). The following applies: dosage 25 g of a.i./ha. The procedure: as §1, §2, §3
The subject of another experiment is Echinochloa crus-galli. The experiment can be described thus: Greenhouse trial, post-emergence, visual herbicidal effect. Conditions: Greenhouse; dosage 3 g of a.i./ha; Table 5-115. The procedure:
as §4, §2, §3

A further experiment relates to Euphorbia heterophylla. The experiment can be described thus: Field trial, post-emergence, visual scoring. The procedure:
as §1, §2, §3

This note sets out measurements from US9867376B2, “Herbicidal compositions comprising N-tetrazol-5-yl)- or N-(triazol-5-yl)arylcarboxamides” (priority 2012, dated 2018).

Molecules are shown by their SMILES.

Regarding `Cn1nnnc1NC(=O)c1ccc(C(F)(F)F)cc1S(C)(=O)=O` [A1-2], the “Activity [%] against Galium aparine” value with Galium aparine (Table 5-04, field, 25 g of a.i./ha) came out at 70%. Also, in the experiment with Phalaris minor, the “Activity [%] against Phalaris minor” value was determined as 0%. In addition, the “Activity [%] against Viola tricolor” value with Viola tricolor (Table 5-02, greenhouse, 2 g of a.i./ha) stood at 60%. In addition, the “Activity [%] against Avena fatua” value with Avena fatua is on record as 0%.

Regarding `CCCn1nnnc1NC(=O)c1ccc(C(F)(F)F)c(S(C)(=O)=O)c1C` [A1-9], the “Activity [%] against Sida spinosa” value in the experiment with Sida spinosa (Table 5-10, field, 10 g of a.i./ha) was determined as 60%; in the experiment with Sida spinosa (Table 5-11, field, 10 g of a.i./ha) it was 60%; with Sida spinosa (Table 5-21, field, 10 g of a.i./ha) it was 60%. Moreover, the “Activity [%] against Cassia obtusifolia” value with Cassia obtusifolia (Table 5-12, field, 20 g of a.i./ha) is reported as 0%; in the experiment on Cassia obtusifolia (Table 5-24, field, 20 g of a.i./ha), 0%; in the experiment with Cassia obtusifolia (Table 5-25, field, 25 g of a.i./ha), 65%. Besides, the “Activity [%] against Abutilon theophrasti” value in the experiment on Abutilon theophrasti (20 g of a.i./ha) was determined as 78%. Besides, the “Activity [%] against Portulaca oleracea” value with Portulaca oleracea (Table 5-13, field, 20 g of a.i./ha) is listed as 43%; in the experiment with Portulaca oleracea (Table 5-14, field, 20 g of a.i./ha), 43%; in the experiment on Portulaca oleracea (Table 5-15, field, 20 g of a.i./ha), 43%; in the experiment on Portulaca oleracea (Table 5-16, field, 20 g of a.i./ha) it was 43%; in the experiment with Portulaca oleracea (Table 5-18, field, 20 g of a.i./ha), 43%; in the experiment with Portulaca oleracea (Table 5-19, field, 20 g of a.i./ha), 43%. Also, the “Activity [%] against Portulaca oleracea” value with Portulaca oleracea (Table 5-20, field, 20 g of a.i./ha) was 43%; with Portulaca oleracea (Table 5-22, field, 10 g of a.i./ha) it was 38%. Further, the “Activity [%] against Setaria viridis” value with Setaria viridis (Table 5-23, field, 10 g of a.i./ha) came out at 15%; in the experiment on Setaria viridis (Table 5-26, field, 25 g of a.i./ha), 7%.

`Cc1c(C(=O)Nc2nnnn2C)ccc(S(C)(=O)=O)c1-n1cccn1` [A1-26]: the “Activity [%] against Viola tricolor” value with Viola tricolor (Table 5-42, greenhouse, 3 g of a.i./ha) came out at 50%. The “Activity [%] against Papaver rhoeas” value in the experiment on Papaver rhoeas (Table 5-39, greenhouse, 6 g of a.i./ha) is 50%; in the experiment with Papaver rhoeas (Table 5-41, greenhouse, 3 g of a.i./ha), 30%. For the same compound, the “Activity [%] against Centaurea cyanis” value came out at 40% in the experiment with Centaurea cyanis (Table 5-38, greenhouse, 3 g of a.i./ha) and 60% in the experiment with Centaurea cyanis (Table 5-40, greenhouse, 6 g of a.i./ha).

On to `CCc1c(C(=O)Nc2nnnn2C)ccc(Cl)c1SC` [A1-36], for which the “Activity [%] against Amaranthus retroflexus” value in the experiment with Amaranthus retroflexus (50 g of a.i./ha) was 0%. For the same compound, the “Activity [%] against Bidens pilosa” value was 45% with Bidens pilosa (Table 5-46, greenhouse, 2 g of a.i./ha) and 30% in the experiment with Bidens pilosa (Table 5-47, greenhouse, 4 g of a.i./ha). Further, in the experiment on Brachiaria platyphylla (Table 5-45, greenhouse, alone, 2 g of a.i./ha), the “Activity [%] against Brachiaria platyphylla” value stood at 25%.

With `Cc1ccc(C(=O)Nc2nnnn2C)c(Cl)c1S(C)(=O)=O` [A1-49], in the experiment with Polygunum convolvulus, the “Activity [%] against Polygunum convolvulus” value stood at 35%. The “Activity [%] against Lolium multiflorum” value with Lolium multiflorum (Table 5-54, field, 25 g of a.i./ha) is listed as 40%. Further, the “Activity [%] against Ambrosia artemisiifolia” value in the experiment with Ambrosia artemisiifolia was 80%.

`COc1c(S(C)(=O)=O)ccc(C(=O)Nc2nnnn2C)c1Cl` [A1-67]: the “Activity [%] against Veronica hederifolia” value in the experiment with Veronica hederifolia is recorded as 75%. The “Activity [%] against Setaria viridis” value in the experiment with Setaria viridis (Table 5-80, field, 25 g of a.i./ha) is 65%. Moreover, the “Activity [%] against Polygonum convolvulus” value with Polygonum convolvulus is 10%. In the experiment with Xanthium strumarium, the “Activity [%] against Xanthium strumarium” value came out at 0%.

Turning to `COCc1nc(C(F)(F)F)ccc1C(=O)Nc1nnnn1C` [A4-2], the “Activity [%] against Brachiaria platyphylla” value with Brachiaria platyphylla (Greenhouse, dosage 1 g of a.i./ha, Table 5-113) came to 0%. Moreover, the “Activity [%] against Stellaria media” value in experiment [1] (Table 5-114) amounted to 63%.

Take `Cn1nnnc1NC(=O)c1ccc(C(F)(F)F)nc1Cl` [A4-7]: the “Activity [%] against Echinochloa crus-galli” value in the experiment with Echinochloa crus-galli is 50%. The “Activity [%] against Stellaria media” value in experiment [1] (Table 5-116) was 60%.

`Cc1cc(Cl)ccc1OCC(=O)O` [MCPA]: the “Activity [%] against Lolium multiflorum” value with Lolium multiflorum (Table 5-54, field, 280 g of a.i./ha) came to 0%. For the same compound, the “Activity [%] against Galium aparine” value in the experiment on Galium aparine (Table 5-61, field, 280 g of a.i./ha) came to 0%. Moreover, the “Activity [%] against Setaria viridis” value with Setaria viridis (Table 5-26, field, 280 g of a.i./ha) is reported as 0%; with Setaria viridis (Table 5-80, field, 280 g of a.i./ha), 0%.

Consider `CCNc1nc(Cl)nc(NC(C)C)n1` [atrazine], for which the “Activity [%] against Amaranthus retroflexus” value in the experiment on Amaranthus retroflexus (560 g of a.i./ha) is reported as 60%. In addition, in the experiment with Portulaca oleracea (Table 5-13, field, 250 g of a.i./ha), the “Activity [%] against Portulaca oleracea” value stood at 25%. The “Activity [%] against Euphorbia heterophylla” value with Euphorbia heterophylla (Field, dosage 1000 g of a.i./ha) was 55%; in the experiment with Euphorbia heterophylla (Table 5-51, field, alone, 1000 g of a.i./ha) it was 49%; in the experiment on Euphorbia heterophylla (Table 5-63, field, alone, 1000 g of a.i./ha) it was 49%; in the experiment with Euphorbia heterophylla (Table 5-85, field, alone, 1000 g of a.i./ha), 49%.

For `O=C(Nc1ccc(F)cc1F)c1cccnc1Oc1cccc(C(F)(F)F)c1` [diflufenican], in the experiment with Lolium multiflorum (Table 5-58, field, 120 g of a.i./ha), the “Activity [%] against Lolium multiflorum” value is on record as 10%.

On to `COC[C@H](C)N(C(=O)CCl)c1c(C)csc1C` [dimethenamide-P], for which, in the experiment on Abutilon theophrasti (500 g of a.i./ha), the “Activity [%] against Abutilon theophrasti” value turned out to be 25%.

Take `CP(=O)(O)CCC(N)C(=O)O` (stereo not drawn) [glufosinate-ammonium]: the “Activity [%] against Sida spinosa” value in the experiment on Sida spinosa (Table 5-10, field, 125 g of a.i./ha) is given as 50%.

For `O=C(O)CNCP(=O)([O-])O.[K+]` [glyphosate-potassium], in the experiment with Sida spinosa (Table 5-11, field, 200 g of a.i./ha), the “Activity [%] against Sida spinosa” value is reported as 30%.

`O=C(O)CNCP(=O)(O)O` [glyphosate]: in the experiment on Cassia obtusifolia (Table 5-12, field, 200 g of a.i./ha), the “Activity [%] against Cassia obtusifolia” value amounted to 65%.

As for `Cc1ccc2c(c1)[C@H](Nc1nc(N)nc(C(C)F)n1)[C@@H](C)C2` (stereo partly drawn) [indaziflam], the “Activity [%] against Cassia obtusifolia” value with Cassia obtusifolia (Table 5-24, field, 25 g of a.i./ha) is 65%.

On to `CSc1nnc(C(C)(C)C)c(=O)n1N` [metribuzin], for which the “Activity [%] against Sida spinosa” value in the experiment on Sida spinosa (Table 5-21, field, 50 g of a.i./ha) came out at 25%. For the same compound, the “Activity [%] against Portulaca oleracea” value in the experiment on Portulaca oleracea (Table 5-16, field, 50 g of a.i./ha) is reported as 0%.

As to `Cc1c(C(=O)c2cnn(C)c2O)ccc(S(C)(=O)=O)c1C1=NOCC1` [topramezone], in the experiment with Setaria viridis (Table 5-23, field, 9 g of a.i./ha), the “Activity [%] against Setaria viridis” value worked out at 30%.
